From patent publication US20150289512A1, “METHOD FOR PROMOTING PLANT GROWTH” (SUMITOMO CHEMICAL COMPANY, LIMITED, priority 2012, published 2015)

Legend:
[1] = test system: Nicotiana benthamiana; assay: Test Example 6: growth promotion under low-temperature stress by hydroponics of Nicotiana benthamiana, 0.1 ppm; type: in vivo; conditions: 0.1 ppm in medium, low-temperature stress 7 days at 1.5±1.0° C., green leaf area 3 days later, equation (1)
Procedure, shortened: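 Seeds grown in half-strength Murashige–Skoog medium (pH 5.8), compound at 0.1 ppm (0.1% DMSO), 7 days at 22 °C, 4,000 lux, 16 h day; then 7 days at 1.5±1.0 °C, 2,000 lux; then 3 days recovery at 22 °C. Green leaf area imaged; relative leaf area versus DMSO controls before and after cold, ≥5 scored as mitigating.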

[2] = test system: Rice (variety: Nipponbare); assay: Test Example 1: promotion of root growth by hydroponics of rice, 10 ppm; type: in vivo; conditions: Oryza sativa, hydroponic solution containing the test compound at 10 ppm, average of 4 or 5 individuals, read-out: Relative value of length of seminal root (%-untreated control plot)
Procedure, shortened: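 Surface-sterilised seeds germinated 3 days in the dark at 28° C in hydroponic solution with compound at 10 ppm, then grown 3 days hydroponically with compound at 10 ppm (26° C, 4,000 lux, 16 h day, 50% humidity). Seminal root length measured by image analysis, averaged over 4 or 5 plants per plot.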

SMILES | relative leaf area (% of untreated control) at 0.1 ppm [1] [%] | change in vivo at 10 ppm [2] [%]
O=C(NCc1ccccc1)c1cc2cc(C(F)(F)F)ccc2o1 [Compound 54] | ≥ 5 | > 5
COC(=O)c1oc2ccc(C(F)(F)F)cc2c1O [Compound 50] | ≥ 5 | > 5
O=C(O)c1cc2c(C(F)(F)F)cccc2o1 [Compound 43] | ≥ 5 | > 5
O=C(NCc1ccccc1)c1oc2ccc(C(F)(F)F)cc2c1C(F)(F)F [Compound 77] | ≥ 5 | –
COC(=O)c1oc2ccccc2c1NC(=O)C(F)(F)F [Compound 39] | ≥ 5 | > 5
O=C(Nc1ccccc1)c1cc2cc(C(F)(F)F)ccc2o1 [Compound 53] | ≥ 5 | > 5
NC(=O)c1oc2ccccc2c1C(F)(F)F [Compound 85] | ≥ 5 | > 5
COC(=O)c1oc2ccccc2c1C [Compound 37] | – | > 5
COC(=O)c1oc2ccc(C(F)(F)F)cc2c1N(C)C [Compound 62] | ≥ 5 | > 5
CNC(=O)c1cc2cc(C(F)(F)F)ccc2o1 [Compound 52] | ≥ 5 | > 5
CCOC(=O)c1oc2cccc(O)c2c1C [Compound 80] | ≥ 5 | > 5
O=C(O)c1oc2ccc(C(F)(F)F)cc2c1C(F)(F)F [Compound 69] | ≥ 5 | > 5
NC(=O)c1cc2cc(C(F)(F)F)ccc2o1 [Compound 51] | – | > 5
Cc1c(C(=O)O)oc2ccccc12 [Compound 36] | ≥ 5 | > 5
COC(=O)c1oc2ccc(C(F)(F)F)cc2c1C(F)(F)F [Compound 70] | ≥ 5 | –
COC(=O)c1oc2ccc(C(F)(F)F)cc2c1NC(C)=O [Compound 63] | ≥ 5 | > 5
COC(=O)c1oc2ccccc2c1NC(C)=O [Compound 40] | – | > 5
O=C(O)c1nc2c(F)cc(F)cc2s1 [Compound 86] | ≥ 5 | > 5

SMILES | relative leaf area (% of untreated control) at 0.1 ppm [1] [%] | change in vivo at 10 ppm [2] [%]
O=C(O)c1cc2cc(Br)ccc2o1 [Compound 79] | ≥ 5 | –
O=C(Oc1ccccc1)c1cc2cc(C(F)(F)F)ccc2o1 [Compound 55] | – | > 5
COC(=O)c1oc2ccc(C(F)(F)F)cc2c1NC(=O)C(F)(F)F [Compound 65] | ≥ 5 | –
COC(=O)c1oc2ccc(C(F)(F)F)cc2c1NS(C)(=O)=O [Compound 67] | – | > 5
CCOC(=O)c1oc2ccc(C(F)(F)F)cc2c1C(F)(F)F [Compound 71] | ≥ 5 | > 5
COC(=O)c1oc2ccc(C(F)(F)F)cc2c1NS(=O)(=O)c1ccccc1 [Compound 68] | ≥ 5 | > 5
COC(=O)c1oc2ccc(C(F)(F)F)cc2c1C [Compound 33] | – | > 5
O=C(OCc1ccccc1)c1oc2ccc(C(F)(F)F)cc2c1C(F)(F)F [Compound 73] | ≥ 5 | –
O=C(O)c1oc2ccccc2c1C(F)(F)F [Compound 82] | – | > 5
NC(=O)c1oc2ccc(C(F)(F)F)cc2c1C(F)(F)F [Compound 74] | ≥ 5 | > 5
COC(=O)c1cc2c(C(F)(F)F)cccc2o1 [Compound 45] | ≥ 5 | –
O=C(Nc1ccccc1)c1oc2ccc(C(F)(F)F)cc2c1C(F)(F)F [Compound 76] | ≥ 5 | > 5
COC(=O)c1oc2ccc(C(F)(F)F)cc2c1N(C(C)=O)C(C)=O [Compound 64] | ≥ 5 | –
CCOC(=O)c1cc2c(C(F)(F)F)cccc2o1 [Compound 44] | – | > 5
O=C(OCc1ccccc1)c1cc2cc(C(F)(F)F)ccc2o1 [Compound 56] | ≥ 5 | > 5
CNC(=O)c1oc2ccc(C(F)(F)F)cc2c1C(F)(F)F [Compound 75] | – | > 5
COC(=O)c1cc2cc(C(F)(F)F)ccc2o1 [Compound 3, methyl 5-(trifluoromethyl)benzofuran-2-carboxylate] | ≥ 5 | –
